Experimental findings from PubChem BioAssay (NCI) are described below.

Some test systems named below: CAKI-1 renal; HL-60(TB) leukemia; SK-OV-3 ovarian; UACC-62 melanoma; EKVX NSCLC; CCRF-CEM leukemia; NCI-H226 lung; HT29 colon; LOX IMVI melanoma; 786-0 renal.
What all share (assay): NCI tumour cell line growth inhibition, 48 h

Molecules are shown by their SMILES.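 A five-concentration, 48-hour dose response in 96-well plates underlies each endpoint, interpolated linearly between surrounding concentrations. GI50 marks 50% less growth. TGI marks complete inhibition of growth.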

For `Cc1nc(N)sc1C(=O)Nc1cc(C(=O)NCCCN(C)C)n(C)c1`, the GI50 in the test on CAKI-1 renal, in the test on HL-60(TB) leukemia, in the test on SK-OV-3 ovarian, in the test with UACC-62 melanoma, with EKVX NSCLC and with CCRF-CEM leukemia was greater than 100 µM each time. The GI50 in the test with NCI-H226 lung, in the test with HT29 colon, in the test with LOX IMVI melanoma and with 786-0 renal was greater than 100 µM throughout. Moreover, the TGI with CAKI-1 renal, in the test on HL-60(TB) leukemia, in the test with SK-OV-3 ovarian, with UACC-62 melanoma, in the test with EKVX NSCLC and with CCRF-CEM leukemia was greater than 100 µM each time. Further, the TGI in the test with NCI-H226 lung, in the test on HT29 colon, with LOX IMVI melanoma and in the test with 786-0 renal was greater than 100 µM in each case.
Take `COc1ccc2c(c1)[n+](=O)c(C(=O)/C=C/c1cc(OC)c(OC)c(OC)c1)c(C)n2[O-]`: the GI50 in the test with CAKI-1 renal is 26.9 µM; in the test on HL-60(TB) leukemia, greater than 100 µM; with SK-OV-3 ovarian, 21.3 µM; with UACC-62 melanoma, 17.2 µM; in the test on EKVX NSCLC, 1.97 µM; with CCRF-CEM leukemia it was 28 µM. In addition, the GI50 in the test with NCI-H226 lung was 26.3 µM; with HT29 colon, greater than 100 µM; with LOX IMVI melanoma it was 16 µM; in the test on 786-0 renal, 12.8 µM. In addition, the TGI was greater than 100 µM in the test on CAKI-1 renal; greater than 100 µM with HL-60(TB) leukemia; 51.7 µM in the test on SK-OV-3 ovarian; 37.3 µM with UACC-62 melanoma; 15.1 µM in the test on EKVX NSCLC; greater than 100 µM in the test with CCRF-CEM leukemia. Besides, the TGI was 82.4 µM in the test on NCI-H226 lung, greater than 100 µM in the test with HT29 colon, 47.6 µM with LOX IMVI melanoma and 30.7 µM with 786-0 renal.
In the case of `O=C(OCc1ccc2c(Cl)cc(Cl)c(O)c2n1)c1cc2ccccc2[nH]1`, the GI50 was 0.435 µM with CAKI-1 renal; 0.374 µM in the test on HL-60(TB) leukemia; 3.6 µM with SK-OV-3 ovarian; 0.478 µM in the test with UACC-62 melanoma; 1.49 µM in the test with EKVX NSCLC; 0.146 µM with CCRF-CEM leukemia. In addition, the GI50 in the test with NCI-H226 lung is 1.48 µM; in the test with HT29 colon, 0.32 µM; with LOX IMVI melanoma, 0.17 µM; in the test with 786-0 renal, 0.275 µM. The TGI was found to be 1.65 µM in the test on CAKI-1 renal; 1.69 µM with HL-60(TB) leukemia; 13.3 µM in the test on SK-OV-3 ovarian; 1.7 µM with UACC-62 melanoma; 3 µM in the test on EKVX NSCLC; 1.93 µM in the test on CCRF-CEM leukemia. The TGI in the test on NCI-H226 lung amounted to 3.07 µM; with HT29 colon, 1.03 µM; in the test with LOX IMVI melanoma, 0.332 µM; in the test on 786-0 renal, 0.833 µM.
`COc1ccc(-c2csc(-c3cc(Cl)cc(Cl)c3Cl)n2)cc1`: the GI50 in the test on CAKI-1 renal was greater than 100 µM; with HL-60(TB) leukemia it was 78.3 µM; with SK-OV-3 ovarian, 96.8 µM; in the test with UACC-62 melanoma, 41.9 µM; in the test on EKVX NSCLC, 59.9 µM; with CCRF-CEM leukemia, greater than 100 µM. Moreover, the GI50 in the test with NCI-H226 lung is 78 µM; in the test with HT29 colon, 47.5 µM; in the test on LOX IMVI melanoma, greater than 100 µM; in the test on 786-0 renal, greater than 100 µM. The TGI in the test on CAKI-1 renal, in the test with HL-60(TB) leukemia, in the test on SK-OV-3 ovarian, in the test with UACC-62 melanoma, in the test with EKVX NSCLC and in the test with CCRF-CEM leukemia was greater than 100 µM in each case. Further, the TGI in the test with NCI-H226 lung, in the test with HT29 colon, in the test with LOX IMVI melanoma and with 786-0 renal was greater than 100 µM in each case.
Regarding `CN(C)c1n/c(=N/c2ncn[nH]2)ss1`, the TGI in the test with CAKI-1 renal, with HL-60(TB) leukemia, with SK-OV-3 ovarian, in the test with UACC-62 melanoma, in the test on EKVX NSCLC and with CCRF-CEM leukemia was greater than 100 µM in each case. Besides, the TGI in the test with NCI-H226 lung, in the test on HT29 colon, with LOX IMVI melanoma and in the test with 786-0 renal was greater than 100 µM in each case.
As for `CCCCCCCC(=O)SCC/C=C/[C@@H]1CC(=O)NCc2nc(co2)C2=N[C@@](C)(CS2)C(=O)N[C@@H](C(C)C)C(=O)O1`, the GI50 is 0.125 µM with CAKI-1 renal; 0.0294 µM with HL-60(TB) leukemia; 0.0107 µM with SK-OV-3 ovarian; 0.00917 µM with UACC-62 melanoma; 0.0344 µM with EKVX NSCLC; 0.0296 µM in the test on CCRF-CEM leukemia. Besides, the GI50 in the test with NCI-H226 lung is 0.0861 µM; in the test with HT29 colon it was 0.0136 µM; in the test on LOX IMVI melanoma, 0.0277 µM; in the test with 786-0 renal, 0.0456 µM. The TGI with CAKI-1 renal was 0.394 µM; in the test with HL-60(TB) leukemia, 31.8 µM; in the test on SK-OV-3 ovarian, 0.101 µM; in the test on UACC-62 melanoma it was 0.0536 µM; in the test on EKVX NSCLC, greater than 50 µM; with CCRF-CEM leukemia it was greater than 50 µM. Also, the TGI is 2.37 µM in the test with NCI-H226 lung, 7.78 µM in the test on HT29 colon, 0.103 µM in the test with LOX IMVI melanoma and greater than 50 µM in the test with 786-0 renal.
Take `COc1ccc(C(=O)c2cc3c(N)c(C(=O)Nc4cccc(Cl)c4C)sc3nc2C)cc1`: the GI50 with CAKI-1 renal was 0.0995 µM; in the test with HL-60(TB) leukemia it was 0.0759 µM; in the test on SK-OV-3 ovarian, 0.161 µM; with UACC-62 melanoma, 0.12 µM; in the test on EKVX NSCLC it was 0.134 µM; in the test on CCRF-CEM leukemia, 0.0889 µM. Moreover, the GI50 was 0.277 µM in the test with NCI-H226 lung, 0.0863 µM with HT29 colon, 0.154 µM with LOX IMVI melanoma and 0.187 µM in the test with 786-0 renal. In addition, the TGI with CAKI-1 renal is greater than 25 µM; with HL-60(TB) leukemia, 0.226 µM; in the test with SK-OV-3 ovarian, greater than 25 µM; with UACC-62 melanoma, greater than 25 µM; in the test with EKVX NSCLC, greater than 25 µM; in the test with CCRF-CEM leukemia, greater than 25 µM. Also, the TGI with NCI-H226 lung, with HT29 colon, in the test on LOX IMVI melanoma and with 786-0 renal was greater than 25 µM in each case.
Regarding `NC(=O)/C=C/NC(=O)/C=N\O`, the TGI in the test on CAKI-1 renal, in the test with HL-60(TB) leukemia, in the test on SK-OV-3 ovarian, in the test on UACC-62 melanoma, with EKVX NSCLC and with CCRF-CEM leukemia was greater than 100 µM in each case. For the same compound, the TGI in the test on NCI-H226 lung, with HT29 colon, with LOX IMVI melanoma and in the test with 786-0 renal was greater than 100 µM throughout.
